How the values were obtained:
[1] = system: odor of p-cresyl acetate; experiment: Sensory test of cross-adaptation, target odor p-cresyl acetate; format: in vivo, human; details: panelists
[2] = system: odor of p-cresyl isobutyrate; experiment: Sensory test of cross-adaptation, target odor p-cresyl isobutyrate; format: in vivo, human; details: panelists
[3] = molecular target: T1, OR9Q2 (Homo sapiens, UniProt Q8NGE9); experiment: Luciferase reporter gene assay, OR9Q2-expressing HEK293 cells; format: cell-based; details: FIG. 2, 5B, 5C
T1 construct: expressed in transfected cells; host or cells: HEK293
T1 sequence (Q8NGE9 1-314): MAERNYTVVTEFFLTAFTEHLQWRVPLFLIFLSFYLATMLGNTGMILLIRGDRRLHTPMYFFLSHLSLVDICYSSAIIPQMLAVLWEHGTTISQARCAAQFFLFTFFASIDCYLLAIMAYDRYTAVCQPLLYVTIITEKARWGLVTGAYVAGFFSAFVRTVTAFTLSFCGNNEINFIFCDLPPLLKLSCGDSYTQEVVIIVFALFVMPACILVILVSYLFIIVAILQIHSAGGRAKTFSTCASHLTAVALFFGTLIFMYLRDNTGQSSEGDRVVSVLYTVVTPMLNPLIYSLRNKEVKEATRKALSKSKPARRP
Excerpt: On the basis of sequence information registered in GenBank, genes respectively encoding 370 human olfactory receptors shown in Tables 1-1 and 1-2 and genes respectively encoding the human olfactory receptors OR5AN1, OR10G4 and OR9Q2 (respectively set forth in SEQ ID NOS: 1, 3 and 5) were cloned. Each of the genes was cloned by the PCR using human genomic DNA person (G1521: Promega) as a template. Each gene amplified by the PCR was incorporated into a pENTR vector (Invitrogen) in accordance with the instruction, and was recombined to NotI and AscI sites produced downstream from a Flag-Rho tag sequence on a pME18S vector by using NotI and AscI sites present on the pENTR vector.
In 1) of Example 1, HEK293 cells on which the 370 human olfactory receptors were respectively expressed were produced. A reaction solution having a composition shown in Table 2 was prepared and allowed to stand still in a clean bench for 15 minutes, and the resultant was added by 4.4 μL per well in a 384-well plate (BioCoat). Subsequently, the HEK293 cells (20×10^4 cells/cm^2) were seeded by 40 μL per well, and the resultant was cultured for 24 hours in an incubator kept at 37° C. and 5% CO2.
In 2) of Example 1 and Examples 2 and 3, HEK293 cells in which the human olfactory receptor OR5AN1, OR10G4, OR9Q2 or OR1A1 was expressed were produced. A reaction solution having a composition shown in Table 3 was prepared and allowed to stand still in a clean bench for 15 minutes, and the resultant was added by 10 μL per well in a 96-well plate (BioCoat). Subsequently, the HEK293 cells (3×10^5 cells/cm^2) were seeded by 90 μL per well, and the resultant was cultured for 24 hours in an incubator kept at 37° C. and 5% CO2. Cells obtained under conditions for not expressing the olfactory receptor (Mock) were also prepared to be used as a control, and were used similarly in an experiment.
The olfactory receptor expressed on the HEK293 cells increases the intracellular cAMP amount by activating adenylate cyclase in conjugation with intracellular Gαs. In the measurement of odor response in this study, luciferase reporter gene assay for monitoring the increase of the intracellular cAMP amount as a luminescence value derived from a firefly luciferase gene (fluc2P-CRE-hygro) was employed. Besides, a fused Renilla luciferase (hRluc-CMV) gene was simultaneously transferred downstream of the CMV promoter, so as to be used as an internal standard for correcting the gene transfer efficiency or an error in the number of cells. For measuring the activity of the luciferase, Dual-Glo(™) Luciferase Assay System (Promega) was used, and the measurement was performed in accordance with the operation instruction of the product. Under each of various stimulation conditions, a value fLuc/hRluc obtained by dividing a firefly luciferase-derived luminescence value by a Renilla luciferase-derived luminescence value was calculated. A value obtained by dividing a value fLuc/hRluc induced by stimulation with an odorous substance by a value fLuc/hRluc of a cell not stimulated with the odorous substance was obtained as fold increase, which was used as an index of the response intensity. A dose-response curve was analyzed using Graph Pad Prism.
The medium was removed from each of the cultures of the olfactory receptor expressing cells produced according to Reference Example 1, and an odorous substance (muscone, guaiacol or p-cresol) was added thereto. A DMEM medium (Nacalai) containing muscone or guaiacol was added to a 384-well plate containing the culture by 30 μL per well (to a final concentration of muscone of 100 μM and of guaiacol of 1 mM). Alternatively, a CD293 medium (Invitrogen) containing p-cresol was added to a 96-well plate containing the culture by 75 μL per well (to a final concentration of 1 mM). […]

[4] = system: odor of p-methyl quinoline; experiment: Sensory test of cross-adaptation, target odor p-methyl quinoline; format: in vivo, human; details: panelists
[5] = system: odor of p-cresol; experiment: Sensory test of cross-adaptation, target odor p-cresol; format: in vivo, human; details: panelists, test sample smelled before target sample, FIG. 6C
Method: The cross-adaptation effect induced by the odorous substance evaluated in Example 2 was estimated by a sensory test. A glass bottle (No. 11, manufactured by Hakuyo Glass Co., Ltd., capacity: 110 mL) was charged with a target odorous substance to be used as a target sample. As the target odorous substance, muscone, guaiacol or p-cresol was used. As the muscone, a cotton ball soaked with 1 mg of muscone was used. As the guaiacol and p-cresol, 1 mL of a mineral oil (Sigma-Aldrich) solution in a concentration of 10 ppm was used. In a similar manner, a glass bottle was charged with a test substance to be used as a test sample. As the test sample, 5 mg of an ethyl vanillin powder, or 1 mL of a mineral oil (Sigma-Aldrich) solution of p-cresyl acetate, p-cresyl isobutyrate or p-methyl quinoline prepared to a concentration of 1,000 ppm was used.
The sensory test was performed by a single blind method by five to eight panelists. The target sample was first presented to each panelist, who was caused to replay on the odor intensity. Next, the test sample was presented for 2 minutes or until the odor could not be perceived. Thereafter, the target sample was presented again, and the panelist was caused to replay on the odor intensity. This series of operations was defined as one set, and the sensory test was carried out with four sets per day per panelist set as the upper limit. A recess of at least 10 minutes or more was provided between the sets.
The panelist was caused to plot the estimated intensity of the target odor on a straight line of 9.5 cm with both ends respectively provided with criteria “No odor” and “Strong odor”. A distance (A) between the position of the target odor intensity plotted in the initial estimate and the end of “No odor”, and a distance (B) between the position of the target odor intensity plotted in the second estimate and the end of “No odor” were obtained, so as to calculate percentage odor intensity of the initial estimate [B/A*100−100]. As this value is smaller, the intensity of the target odor perceived in the second estimate is suppressed stronger as compared with that in the initial estimate, namely, stronger cross-adaptation is induced. If this value is −100%, it means that the target odor was not perceived at all in the second estimate.

## C[C@@H]1CCCCCCCCCCCCC(=O)C1 [muscone, (R)-3-methyl-1-cyclopentadecanone]
[1]
  cross-adaptation of p-cresyl acetate odor induced by test substance: did not induce the cross-adaptation
[2]
  cross-adaptation of p-cresyl isobutyrate odor induced by test substance: did not induce the cross-adaptation
[3]
  responsiveness of OR9Q2 (fold increase): do not have responsiveness
[4]
  cross-adaptation of p-methyl quinoline odor induced by test substance: did not induce the cross-adaptation
[5]
  cross-adaptation of p-cresol odor induced by test substance: did not induce the cross-adaptation
